From patent US7132425B2, “5-substituted-six-membered heteroaromatic glucokinase activators” (Hoffmann-La Roche Inc., priority 2002, dated 2006)

Test system: C57BL/6J mice
Test: Glucokinase activator in vivo screen (blood glucose after oral dosing)
Settings: oral gavage 50 mg/kg after two hour fast, readings 1, 2, 4 and 6 hours post dose, p≦0.05 for two consecutive assay time points
Experimental: Glucokinase Activator in vivo Screen Protocol: C57BL/6J mice are orally dosed via gavage with Glucokinase (GK) activator at 50 mg/kg body weight following a two hour fasting period. Blood glucose determinations are made five times during the six hour post-dose study period.
Mice (n=6) are weighed and fasted for a two hour period prior to oral treatment.

Compound	decrease in blood glucose compared to vehicle
Cc1cc([C@@H](CC2CCCC2)C(=O)Nc2cnc(C#CC3(O)CCOCC3)cn2)ccc1S(C)(=O)=O [Example 59, 3-Cyclopentyl-N-[5-(4-hydroxy-tetrahydro-pyran-4-ylethynyl)-pyrazin-2-yl]-2(R)-(4-methanesulfonyl-3-methyl-phenyl)-propionamide]	statistically significant (p≦0.05) decrease in blood glucose
CS(=O)(=O)c1ccc([C@@H](CC2CCCC2)C(=O)Nc2cnc(C(O)C#N)cn2)cc1Cl (stereo partly drawn) [Example 26, 2(R)-(3-Chloro-4-methanesulfonyl-phenyl)-N-[5-(cyano-hydroxy-methyl)-pyrazin-2-yl]-3-cyclopentyl-propionamide]	statistically significant (p≦0.05) decrease in blood glucose
CS(=O)(=O)c1ccc([C@@H](CC2CCCC2)C(=O)Nc2cnc(C#CC3(O)CCOCC3)cn2)cc1 [Example 46, 3-Cyclopentyl-N-5-[(4-hydroxy-tetrahydropyran-4-yl-ethynyl)pyrazin-2-yl]-2(R)-(4-methanesulfonyl-phenyl)-propionamide]	statistically significant (p≦0.05) decrease in blood glucose
COCCOc1cnc(NC(=O)[C@H](CC2CCCC2)c2ccc(S(C)(=O)=O)c(Cl)c2)cn1 [Example 43, 2(R)-(3-Chloro-4-methanesulfonyl-phenyl)-3-cyclopentyl-N-5-(2-methoxyethoxy-pyrazin-2-yl)-propionamide]	statistically significant (p≦0.05) decrease in blood glucose
CS(=O)(=O)c1ccc([C@@H](CC2CCCC2)C(=O)Nc2cnc(C#CCO)cn2)cc1Cl [Example 10, 2(R)-(3-Chloro-4-methanesulfonyl-phenyl)-3-cyclopentyl-N-[5-(3-hydroxy-prop-1-ynyl)-pyrazin-2-yl]-propionamide]	statistically significant (p≦0.05) decrease in blood glucose
CS(=O)(=O)c1ccc([C@@H](CC2CCCC2)C(=O)Nc2cnc(C3OCCO3)cn2)cc1Cl [Example 41, 2(R)-(3-Chloro-4-methanesulfonyl-phenyl)-3-cyclopentyl-N-(5-[1,3]dioxolan-2-yl-pyrazin-2-yl)-propionamide]	statistically significant (p≦0.05) decrease in blood glucose
CS(=O)(=O)c1ccc([C@@H](CC2CCCC2)C(=O)Nc2ccc(C3CCCO3)cn2)cc1Cl (stereo partly drawn) [Example 69, 2(R)-(3-Chloro-4-methanesulfonyl-phenyl)-3-cyclopentyl-N-[5-(tetrahydro-furan-2-yl)-pyridin-2-yl]-propionamide]	statistically significant (p≦0.05) decrease in blood glucose
CS(=O)(=O)c1ccc([C@@H](CC2CCCC2)C(=O)Nc2cnc(CCC3(O)CCOCC3)cn2)cc1Cl [Example 51, 2(R)-(3-Chloro-4-methanesulfonyl-phenyl)-3-cyclopentyl-N-[5-(4-hydroxy-tetrahydropyran-4-yl-ethyl)-pyrazin-2-yl]-propionamide]	statistically significant (p≦0.05) decrease in blood glucose
CS(=O)(=O)c1ccc([C@@H](CC2CCCC2)C(=O)Nc2cnc(C#CCCO)cn2)cc1Cl [Example 53, 2(R)-(3-Chloro-4-methanesulfonyl-phenyl)-3-cyclopentyl-N-[5-(4-hydroxy-but-1-ynyl)-pyrazin-2-yl]-propionamide]	statistically significant (p≦0.05) decrease in blood glucose
C/C(=N/O)c1cnc(NC(=O)[C@H](CC2CCCC2)c2ccc(S(C)(=O)=O)c(Cl)c2)cn1 [Example 28, 2(R)-(3-Chloro-4-methanesulfonyl-phenyl)-3-cyclopentyl-N-[5-(1-(Z)-hydroxyimino-ethyl)-pyrazin-2-yl]-propionamide]	statistically significant (p≦0.05) decrease in blood glucose
CS(=O)(=O)c1ccc([C@@H](CC2CCCC2)C(=O)Nc2cnc(-c3ccco3)cn2)cc1Cl [Example 70, 2(R)-(3-Chloro-4-methanesulfonyl-phenyl)-3-cyclopentyl-N-(5-furan-2-yl-pyrazin-2-yl)-propionamide]	statistically significant (p≦0.05) decrease in blood glucose
COCC#Cc1cnc(NC(=O)[C@H](CC2CCCC2)c2ccc(S(C)(=O)=O)c(Cl)c2)cn1 [Example 47, 2(R)-(3-Chloro-4-methanesulfonyl-phenyl)-3-cyclopentyl-N-[5-(3-methoxy-prop-1-ynyl)-pyrazin-2-yl]-propionamide]	statistically significant (p≦0.05) decrease in blood glucose
CS(=O)(=O)c1ccc([C@@H](CC2CCCC2)C(=O)Nc2cnc(C3=CCCCO3)cn2)cc1Cl [Example 75, 2(1R)-(3-Chloro-4-methanesulfonyl-phenyl)-3-cyclopentyl-N-[5-(5,6-dihydro-4H-pyran-2-yl)-pyrazin-2-yl]-propionamide]	statistically significant (p≦0.05) decrease in blood glucose
CS(=O)(=O)c1ccc(C(CC2CCCC2)C(=O)Nc2cnc(CC3SC(=O)NC3=O)cn2)cc1Cl (centres unmarked) [Example 19, 2-(3-Chloro-4-methanesulfonyl-phenyl)-3-cyclopentyl-N-[5-(2,4-dioxo-thiazolidin-5-ylmethyl)-pyrazin-2-yl]-propionamide]	statistically significant (p≦0.05) decrease in blood glucose
COC(OC)c1cnc(NC(=O)[C@H](CC2CCCC2)c2ccc(S(C)(=O)=O)c(Cl)c2)cn1 [Example 21, 2(R)-(3-Chloro-4-methanesulfonyl-phenyl)-3-cyclopentyl-N-(5-dimethoxymethyl-pyrazin-2-yl)-propionamide]	statistically significant (p≦0.05) decrease in blood glucose
CS(=O)(=O)c1ccc([C@@H](CC2CCCC2)C(=O)Nc2cnc([C@@H](O)CO)cn2)cc1Cl [Example 55]	statistically significant (p≦0.05) decrease in blood glucose
CC(=O)c1cnc(NC(=O)C(CC2CCCC2)c2ccc(S(C)(=O)=O)c(Cl)c2)cn1 (centres unmarked) [Example 23, N-(5-Acetyl-pyrazin-2-yl)-2-(3-chloro-4-methanesulfonyl-phenyl)-3-cyclopentyl-propionamide]	statistically significant (p≦0.05) decrease in blood glucose
CC(C)(O)C#Cc1cnc(NC(=O)[C@H](CC2CCCC2)c2ccc(S(C)(=O)=O)cc2)cn1 [Example 61, 3-Cyclopentyl-2(R)-(4-methanesulfonyl-phenyl)-N-[5-(3-hydroxy-3-methyl-but-1-ynyl)-pyrazin-2-yl]-propionamide]	statistically significant (p≦0.05) decrease in blood glucose
CN(C)CCCc1cnc(NC(=O)[C@H](CC2CCCC2)c2ccc(S(C)(=O)=O)c(Cl)c2)cn1 [Example 16, 2(R)-(3-Chloro-4-methanesulfonyl-phenyl)-3-cyclopentyl-N-[5-(3-dimethylamino-propyl)-pyrazin-2-yl]-propionamide]	statistically significant (p≦0.05) decrease in blood glucose
CS(=O)(=O)c1ccc(C(CC2CCCC2)C(=O)Nc2cnc(C=O)cn2)cc1Cl (centres unmarked) [Example 18, 2-(3-Chloro-4-methanesulfonyl-phenyl)-3-cyclopentyl-N-(5-formyl-pyrazin-2-yl)-propionamide]	statistically significant (p≦0.05) decrease in blood glucose
Cc1cc([C@@H](CC2CCCC2)C(=O)Nc2cnc(C#CC(C)(C)O)cn2)ccc1S(C)(=O)=O [Example 57, 3-Cyclopentyl-N-[5-(3-hydroxy-3-methyl-but-1-ynyl)-pyrazin-2-yl]-2(R)-(4-methanesulfonyl-3-methyl-phenyl)-propionamide]	statistically significant (p≦0.05) decrease in blood glucose
Cc1cc([C@@H](CC2CCCC2)C(=O)Nc2cnc([C@H](O)CO)cn2)ccc1S(C)(=O)=O [Example 58, 3-Cyclopentyl-N-[5-1(S),2-dihydroxy-ethyl]-2(R)-(4-methanesulfonyl-3-methyl)-propionamide]	statistically significant (p≦0.05) decrease in blood glucose
CS(=O)(=O)c1ccc([C@@H](CC2CCCC2)C(=O)Nc2cnc(NCCO)cn2)cc1Cl [Example 73, 2(R)-(3-Chloro-4-methanesulfonyl-phenyl)-3-cyclopentyl-N-[5-(2-hydroxy-ethylamino)-pyrazin-2-yl]-propionamide]	statistically significant (p≦0.05) decrease in blood glucose
CN(C)CC#Cc1cnc(NC(=O)[C@H](CC2CCCC2)c2ccc(S(C)(=O)=O)c(Cl)c2)cn1 [Example 11, 2(R)-(3-Chloro-4-methanesulfonyl-phenyl)-3-cyclopentyl-N-[5-(3-dimethylamino-prop-1-ynyl)-pyrazin-2-yl]-propionamide]	statistically significant (p≦0.05) decrease in blood glucose
CS(=O)(=O)c1ccc([C@@H](CC2CCCC2)C(=O)Nc2cnc([C@H](O)CO)cn2)cc1Cl [Example 54, 2(R)-(3-Chloro-4-methanesulfonyl-phenyl)-3-cyclopentyl-N-[5-(1(S),2-dihydroxy-ethyl)-pyrazin-2-yl]-propionamide]	statistically significant (p≦0.05) decrease in blood glucose
CS(=O)(=O)c1ccc([C@@H](CC2CCCC2)C(=O)Nc2cnc(OCCO)cn2)cc1Cl [Example 62, 2(R)-(3-Chloro-4-methanesulfonyl-phenyl)-3-cyclopentyl-N-[5-(2-hydroxy-ethoxy)-pyrazin-2-yl]-propionamide]	statistically significant (p≦0.05) decrease in blood glucose
